We go through 18 molecules from PubChem BioAssay (NCI).

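Tested at 5 concentrations; 48 h exposure; 96-well plates; endpoints linearly interpolated, else capped at highest concentration. GI50 is the concentration that inhibits growth by half. At the TGI there is no net growth.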

Assay in all cases: NCI anticancer screen, dose series, 48 h
Test [1] relates to OVCAR-5 ovarian.
Test [2] concerns TK-10 renal.
The test system of test [3] is EKVX NSCLC.
Test [4] has as its system MOLT-4 leukemia.
For test [5], the system named is NCI-H460 lung.
Test [6] concerns NCI/ADR-RES ovarian.
Test [7] deals with HOP-92 NSCLC.
In test [8] the test system is SF-539 CNS.

Turning to `O=c1c(-c2ccccc2)c(SCCO)n(-c2ccccc2)c(=S)n1-c1ccccc1`, the TGI in test [1], in test [2], in test [3], in test [4], in test [5] and in test [6] was more than 100 µM each time.
For `COc1cc(C2C3=C(COC3=O)Oc3cc4c(cc32)OCO4)cc(OC)c1O` (centres undefined), the TGI was 5.55 µM in test [7]; 39.4 µM in test [1]; 63.8 µM in test [2]; 94.1 µM in test [3]; 26 µM in test [4]; 4.05 µM in test [5]. This molecule displayed a TGI in test [8] of less than 0.0148 µM.
For the molecule `O=C(Nc1ccccc1C(=O)NCc1ccccc1)/C(=C/c1ccccc1)NC(=O)c1ccccc1`, the TGI in test [7], in test [1], in test [2], in test [3], in test [4] and in test [6] was more than 100 µM in each case. This molecule also registered a TGI in test [8] of more than 100 µM.
As for `CC(C)(C)CC(C)(C)c1cc(O)c(O)c(CN2CCCCC2)c1`, the TGI in test [7] amounted to 35 µM; in test [1] it was 31.8 µM; in test [2] it was 29.6 µM; in test [3] it was 26.4 µM; in test [4], 16.4 µM; in test [5], 24 µM. The TGI in test [6] is 19 µM.
For the molecule `Nc1nc(Cl)cc(NC23CC4CC(CC(C4)C2)C3)n1`, the TGI in test [7], in test [1], in test [3], in test [4], in test [5] and in test [6] was more than 100 µM throughout. This molecule yielded a TGI in test [8] of more than 100 µM.
In the case of `COc1cc2cc(C(=O)N3CC(COS(C)(=O)=O)c4ccc(O)cc43)[nH]c2c(OC)c1OC` (centres undefined), the TGI amounted to 0.638 µM in test [7]; 0.0428 µM in test [1]; 14 µM in test [2]; 0.00645 µM in test [3]; 0.0924 µM in test [4]; 0.524 µM in test [6]. In test [8], this molecule displayed a TGI of less than 0.0001 µM.
As for `c1ccc(/C(=N/Nc2ccncn2)c2ccccn2)cc1`, the TGI in test [1] is more than 100 µM; in test [3] it was 50.3 µM; in test [4] it was 49.2 µM; in test [5] it was more than 100 µM; in test [6], 49 µM; in test [8], more than 100 µM.
In the case of `Cc1nc(N)c(N2CCN(CN)CC2)c(=O)[nH]1`, the TGI in test [1], in test [2], in test [3], in test [4], in test [5] and in test [6] was more than 100 µM each time. Moreover, the TGI in test [8] was more than 100 µM.
`COc1ccc2cc(CNCCCCCCNCc3ccc4cc(OC)ccc4c3)ccc2c1`: the TGI in test [1] came out at 2.03 µM; in test [2] it was 3.28 µM; in test [3], 2.74 µM; in test [5], 0.94 µM; in test [6], 2.74 µM; in test [8] it was 3.05 µM.
For the molecule `CN(Cc1cnc2nc(N)nc(N)c2n1)c1ccc(C(=O)NC(CO)CCCO)cc1` (centres undefined), the TGI in test [1], in test [2], in test [3], in test [4], in test [5] and in test [6] was more than 100 µM in each case. The same molecule returned a TGI in test [8] of more than 100 µM.
Regarding `CCN=C1C=CC(=C(c2ccc(N(CC)CC)cc2)c2ccc(N(CC)CC)cc2)c2ccccc21`, the GI50 is 0.0175 µM in test [7]; 0.294 µM in test [1]; 0.0422 µM in test [2]; 0.0378 µM in test [3]; 0.35 µM in test [6]. Also, the TGI came out at 0.0922 µM in test [7]; 1.23 µM in test [1]; 1.13 µM in test [2]; 1.18 µM in test [3]; 2.11 µM in test [6].
For the molecule `O=C(Cc1ccc(Cl)c(Cl)c1)NCC1(N2CCCCC2)CCCCC1`, the TGI in test [7], in test [1], in test [2], in test [3], in test [4] and in test [5] was more than 100 µM throughout. The TGI in test [6] is more than 100 µM.
As for `N#Cc1cc2c(n(C3OC(CO)C(O)C(O)C3O)c1=S)CCCCCC2` (centres undefined), the TGI in test [7], in test [1], in test [2], in test [4], in test [5] and in test [6] was more than 100 µM in each case. For the same molecule, the TGI in test [8] was more than 100 µM.
In the case of `Cc1ccc(S(=O)(=O)Nc2nnc(S(N)(=O)=O)s2)cc1`, the TGI in test [7], in test [1], in test [2], in test [3], in test [4] and in test [5] was more than 100 µM throughout. Further, in test [6], the TGI was more than 100 µM.
On to `NNC(=O)C1(NC(=O)c2ccccc2)C(c2ccccc2)C(c2ccccc2)=NN1c1ccccc1` (centres undefined), for which the TGI is more than 100 µM in test [1]; more than 100 µM in test [2]; more than 100 µM in test [3]; 40.7 µM in test [4]; more than 100 µM in test [5]; more than 100 µM in test [6]. The molecule also displayed a TGI in test [8] of more than 100 µM.
For the molecule `NCC(O)CSCc1ccc(Cl)cc1` (centres undefined), the TGI in test [7], in test [1], in test [2], in test [4], in test [5] and in test [6] was more than 100 µM in each case.
In the case of `O=C1CC(=O)n2cnc3cccc(c32)N1`, the TGI in test [7], in test [1], in test [3], in test [5], in test [6] and in test [8] was more than 100 µM throughout.
For the molecule `C=CCC1C(O[Si](C)(C)C(C)(C)C)C(CO[Si](C)(C)C(C)(C)C)OC1n1ccc(=O)[nH]c1=O` (centres undefined), the TGI was found to be 2.5 µM in test [7]; 2.57 µM in test [1]; 2.79 µM in test [3]; 2.84 µM in test [4]; 2.93 µM in test [5]; 3.48 µM in test [6]. This molecule also had a TGI in test [8] of 3.03 µM.
